One data set concerns dog plasma proteins. Nature of the data set: Plasma protein binding by ultrafiltration, dog plasma. It is filed as in vitro ADME. As to conditions: for Concentration of mCBS, 200 ng/mL Post-filter / Concentration of mCBS, 200 ng/mL Pre-filter / Concentration of mCBS, 2000 ng/mL Post-filter / Concentration of mCBS, 2000 ng/mL Pre-filter: replicates and Mean. On the procedure:
Protein binding was assessed by an ultrafiltration method using Centrifree® Ultrafiltration Devices with a 30000 dalton molecular weight cut-off point. Briefly, known concentrations of mCBS (as free base) were added to human, rat and dog plasma samples and incubated for 20 min at 37° C. The samples were then subject to ultrafiltration to separate protein bound and unbound drug.
mCBS stock solutions (10 μL) were spiked into solutions of each test matrix (490 μL) as listed below in Table 9 to have a final concentration of 200 ng/mL & 2000 ng/m L.
Spiked samples were then incubated at 37° C. for 20 minutes in a water bath. Aliquots of the samples from each test group (500 μL) were transferred to the ultrafiltration devices (n=3) and centrifuged for 20 minutes at 1000 g. After centrifugation, aliquots of the ultrafiltrates (50 μL) were transferred to separate test tubes for extraction, alongside duplicate aliquots of the samples prior to ultrafiltration from each test group.
For quantification of samples before ultrafiltration, samples were analysed against a freshly prepared standard curve in plasma.

In the next data set the test system is Beagle dogs. Nature of the data set: Phase 2, continuous intravenous infusion at the MTD for 6 additional days. Format: in vivo, dog. Here is the method:
Following confirmation of the MTD (2788 mg/kg/day), the dogs were then transferred to Phase 2 of the study, and the dosing administration was resumed at the MTD for 6 additional days of continuous infusion as indicated in Table 16 below.
Following completion of the additional 6 days of continuous infusion and collection of the last toxicokinetic blood samples, all animals were euthanized and subjected to a necropsy examination on Day 8. Histological examination was performed on the liver and kidneys of all animals.

Another data set relates to Wistar rats. Put plainly: Rat caecal ligation and puncture (CLP), moderate sepsis. Format: in vivo. On the procedure: Male Wistar rats (n=8/group) underwent laparotomy, caecal ligation and puncture (CLP) to stimulate faecal peritonitis and subsequent sepsis, then treated with saline (Control CLP) or 50 mg/kg of mCBS at 0, 5 and 10 hr post-op via i.p. injection and monitored for 20 hr. Once rats reached a state of severe morbidity they were humanely euthanased at which point a death was recorded.
Rat caecal ligation and puncture (CLP) assay for sepsis. The CLP assay was performed in male Wistar rats as previously described (see Hubbard, W. J. et al. Cecal ligation and puncture. Shock 24 Suppl 1, 52-57 (2005).). Test compounds (50 mg kg^−1) dissolved in saline or an equivalent volume of saline only (Control cohort) were administered i.p. 5 min pre-CLP and 5, 10 and 15 h post-op until cessation of the experiment at 20 h. Sham-CLP rats underwent the same procedure, however, the caecum was not ligated or punctured and these rats received saline at the same times as above. At the conclusion of the experimental time period (20 h) or when morbidity required ethical euthanasia, the rats were anaesthetised and blood was collected via cardiac puncture into EDTA for subsequent analysis of liver (ALT) and kidney (creatinine) function by the Department of Pathology, The Canberra Hospital. The propensity for clots to form within the blood samples of the saline treated control CLP animals (despite the presence of EDTA) prevented successful analysis of plasma samples from all animals.

The next data set has as its system human RBCs. Put plainly: Histone-induced RBC fragility / lysis under shear. Format: cell-based.

These results are taken from patent US11628179B2, “Compounds for treating and preventing extracellular histone mediated pathologies” (priority 2017, dated 2023).

SMILES strings stand for the structures. Where “and” joins values, the source holds several entries; their conditions need not be identical. Equal entries are not always repeated. Structures can show the parent of a compound that is named as a salt.

For the molecule `CO[C@@H]1O[C@H](COS(=O)(=O)O)[C@@H](O[C@@H]2O[C@H](COS(=O)(=O)O)[C@@H](OS(=O)(=O)O)[C@H](OS(=O)(=O)O)[C@H]2OS(=O)(=O)O)[C@H](OS(=O)(=O)O)[C@H]1OS(=O)(=O)O` [mCBS, β-O-methyl cellobioside sulfate], in the data set on dog plasma proteins (200 ng/mL), the Plasma protein binding amounted to 19.6%. In addition, the Plasma protein binding with dog plasma proteins (2000 ng/mL) is on record as 21.0%. Also, in the data set on dog plasma proteins, the “Concentration of mCBS, 200 ng/mL Post-filter” value is 194 ng/mL and 169 ng/mL and 186 ng/mL; the “Concentration of mCBS, 200 ng/mL Pre-filter” value is 230 ng/mL and 225 ng/mL; the “Concentration of mCBS, 2000 ng/mL Post-filter” value is 1970 ng/mL and 1840 ng/mL and 1900 ng/mL; the “Concentration of mCBS, 2000 ng/mL Pre-filter” value was 2490 ng/mL and 2330 ng/mL. Also, in the data set with dog plasma proteins (mean), the “Concentration of mCBS, 200 ng/mL Post-filter” value stood at 183 ng/mL; the “Concentration of mCBS, 200 ng/mL Pre-filter” value came out at 228 ng/mL; the “Concentration of mCBS, 2000 ng/mL Post-filter” value came to 1903 ng/mL; the “Concentration of mCBS, 2000 ng/mL Pre-filter” value is 2410 ng/mL. Further, the tolerability result in the data set on Beagle dogs (2788 mg/kg/day continuous IV infusion) is on record as “well tolerated”. The “t1/2 after end of infusion” value with Beagle dogs (2788 mg/kg/day, both animals) was “approximately 1 hour”. In the data set on Wistar rats (50 mg/kg i.p. at 0, 5 and 10 hr post-op, monitored 20 hr), the survival rate turned out to be 100%. Moreover, the “circulating LDH levels” value in the data set on Wistar rats (50 mg/kg i.p., Control CLP 1.1±0.2, p=0.03) was found to be 0.6±0.1 U/L×10^3. The “ALT or creatinine levels between the groups” value in the data set with Wistar rats (mCBS vs Control CLP) was “No differences”. In addition, the “inhibition of histone-induced RBC lysis under shear” value in the data set on human RBCs (0-200 μg/mL prior to 400 μg/mL histones 60 min, 100 mm/s, 40× repetitions) is reported as “inhibit histone-induced lysis under shear in a dose-dependent manner”. For the same molecule, the “reversal of histone-induced RBC susceptibility to lysis” value in the data set with human RBCs (histones 400 μg/mL 55 min, then mCBS 5 min) is “near complete inhibition”.
